In PMC5429769, “Rational development of Stafib-2: a selective, nanomolar inhibitor of the transcription factor STAT5b” (Scientific Reports, 2017):
Where a chain is given by its changes, count along the chain named.

What was measured:
Assay type in all cases: binding
STAT3 = test: Fluorescence polarization assay, STAT3; conditions: at 40 µM
[1] = molecular target: T1, STAT5b Phe633Ala, Tyr665Ala (Homo sapiens, UniProt P51692, F633A/Y665A); test: Isothermal titration calorimetry, STAT5b Phe633Ala, Tyr665Ala double mutant; conditions: ITC, 25 °C, n = 3
T1 sequence (P51692 1-787 F633A/Y665A): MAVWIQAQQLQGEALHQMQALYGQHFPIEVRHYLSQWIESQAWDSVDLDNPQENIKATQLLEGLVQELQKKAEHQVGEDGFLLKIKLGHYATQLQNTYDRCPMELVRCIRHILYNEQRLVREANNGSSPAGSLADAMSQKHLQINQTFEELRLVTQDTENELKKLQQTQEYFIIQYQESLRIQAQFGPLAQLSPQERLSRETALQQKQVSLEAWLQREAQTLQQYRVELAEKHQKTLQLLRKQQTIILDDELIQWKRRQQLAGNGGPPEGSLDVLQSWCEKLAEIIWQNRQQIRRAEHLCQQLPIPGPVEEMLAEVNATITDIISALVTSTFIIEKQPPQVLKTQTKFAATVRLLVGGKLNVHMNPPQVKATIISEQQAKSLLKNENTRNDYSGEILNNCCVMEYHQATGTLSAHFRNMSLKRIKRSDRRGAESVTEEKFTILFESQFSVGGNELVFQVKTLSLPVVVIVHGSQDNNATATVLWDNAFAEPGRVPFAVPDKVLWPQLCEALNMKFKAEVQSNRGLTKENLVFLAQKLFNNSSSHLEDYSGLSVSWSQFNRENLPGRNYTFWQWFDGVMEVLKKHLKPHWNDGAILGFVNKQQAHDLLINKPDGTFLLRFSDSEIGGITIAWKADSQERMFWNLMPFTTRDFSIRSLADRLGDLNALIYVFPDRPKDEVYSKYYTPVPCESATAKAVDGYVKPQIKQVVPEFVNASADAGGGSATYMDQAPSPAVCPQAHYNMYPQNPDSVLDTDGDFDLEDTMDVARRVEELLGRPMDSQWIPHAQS

STAT5b Phe633Ala = molecular target: T2, STAT5b Phe633Ala (Homo sapiens, UniProt P51692, F633A); test: Isothermal titration calorimetry, STAT5b Phe633Ala; conditions: ITC, 25 °C, n = 2
T2 sequence (P51692 1-787 F633A): T1 sequence (P51692 1-787 F633A/Y665A) with A665Y

STAT5a wild-type = molecular target: T3, STAT5a wild-type (Homo sapiens, UniProt P42229); test: Isothermal titration calorimetry, STAT5a wild-type
T3 sequence (P42229 1-794): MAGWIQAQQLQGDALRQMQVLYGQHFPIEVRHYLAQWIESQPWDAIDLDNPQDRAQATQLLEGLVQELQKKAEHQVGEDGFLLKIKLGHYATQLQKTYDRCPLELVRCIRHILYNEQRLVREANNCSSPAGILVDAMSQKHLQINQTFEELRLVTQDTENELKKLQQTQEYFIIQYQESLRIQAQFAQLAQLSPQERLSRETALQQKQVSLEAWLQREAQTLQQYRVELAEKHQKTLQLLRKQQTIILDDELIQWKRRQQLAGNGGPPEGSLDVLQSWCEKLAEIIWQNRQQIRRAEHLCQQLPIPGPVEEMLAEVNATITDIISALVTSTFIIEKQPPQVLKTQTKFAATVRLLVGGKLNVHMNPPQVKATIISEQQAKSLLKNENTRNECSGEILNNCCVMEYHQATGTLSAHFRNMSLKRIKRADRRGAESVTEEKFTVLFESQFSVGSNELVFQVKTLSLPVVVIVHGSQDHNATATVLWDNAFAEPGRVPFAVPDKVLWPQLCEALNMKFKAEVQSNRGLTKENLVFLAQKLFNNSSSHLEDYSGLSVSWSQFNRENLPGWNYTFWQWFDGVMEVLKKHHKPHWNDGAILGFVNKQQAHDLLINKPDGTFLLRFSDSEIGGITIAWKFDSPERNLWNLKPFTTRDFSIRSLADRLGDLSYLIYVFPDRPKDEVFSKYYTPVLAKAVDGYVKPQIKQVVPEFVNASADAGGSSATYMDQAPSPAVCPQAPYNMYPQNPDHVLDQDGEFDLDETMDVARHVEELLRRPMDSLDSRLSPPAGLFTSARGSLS

In the case of `O=C(COc1ccc(C(=O)Nc2ccc(Oc3ccccc3)cc2)cc1)NCc1ccc(OP(=O)(O)O)c(OP(=O)(O)O)c1` [compound 4, 4-((2-(4-((4-phenoxyphenyl)carbamoyl)phenoxy)acetamido)methyl)-1,2-phenylene bis(dihydrogen phosphate)], the STAT3 maximum inhibition (STAT3) is reported as 30 ± 3%, the Kd [1] is reported as 3.8 ± 1.7 µM and the ΔH [1] is reported as -5.1 ± 0.5 kcal/mol. The “−TΔS” value [1] was -2.4 ± 0.3 kcal/mol, the Kd (STAT5b Phe633Ala) was 1650 ± 20 nM and the ΔH (STAT5b Phe633Ala) was -4.3 ± 0.2 kcal/mol. The “−TΔS” value (STAT5b Phe633Ala) was -3.6 ± 0.2 kcal/mol, the “fold lower affinity for STAT5a than for STAT5b” value (STAT5a wild-type; ITC Kd STAT5a vs wild-type STAT5b) was “approximately 20 fold” and the Kd (STAT5a wild-type; ITC, 25 °C, STAT5a) was 6.1 ± 3.2 µM.
